Experimental data published in patent publication US20120244567A1, “HUMAN EMBRYONIC STEM CELLS FOR HIGH THROUGHOUT DRUG SCREENING” (BUCK INSTITUTE FOR RESEARCH ON AGING, priority 2009, published 2012).
Counter-ions that a name gives are not always drawn.

Test system: NSCs
Conditions: enriched in treated NSCs
Experimental: RNAs isolated from NSCs and neurons with and without drug treatments were hybridized to Illumina HumanRef-8 BeadChip (Illumina, Inc., San Diego, Calif., performed by Microarray core facility at the Burnham Institute for Medical Research). The Illumina array data were normalized by the quantile method, and then transformed log 2 ratio values for a zero mean for expression values of each gene across all samples. The statistical and bioinformatics analyses were conducted by using R and the bioconductor package (www.bioconductor.org). The gene set enrichment analysis was conducted using the GSEA software (www.broad.mit.edu/gsea).
The comparative results are then measured by a non-parametric, running sum statistic termed the enrichment score. The enrichment score significance is assessed by 1,000 permutation tests to compute the enrichment p-value.

## CCCCc1oc2ccccc2c1C(=O)c1cc(I)c(OCCN(CC)CC)c(I)c1 [Amiodarone Hydrochloride]
  Nes: Endopeptidase Activity: 1.466
  Nes: Enzyme Binding: 0.9684
  Nes: Enzyme Inhibitor Activity: 1.362
  Nes: Enzyme Regulator Activity: 1.305
  Nes: Exonuclease Activity: 1.423
  Nes: Gated Channel Activity: 0.8726
  Nes: General Rna Polymerase Ii Transcription Factor Activity: 0.772
  Nes: Growth Factor Binding: 1.135
  Nes: Gtpase Activator Activity: 1.186
  Nes: Gtpase Binding: 0.9586
  Nes: Gtpase Regulator Activity: 1.412
  Nes: Guanyl Nucleotide Exchange Factor Activity: 1.287
  Nes: Hematopoietin Interferon Class D200 Domain Cytokine Receptor Activity: 0.7947
  Nes: Hormone Receptor Binding: 0.621
  Nes: Hydro Lyase Activity: 0.5564
  Nes: Hydrolase Activity Acting On Ester Bonds: 1.181
  Nes: Hydrolase Activity Acting On Glycosyl Bonds: 1.049
  Nes: Hydrolase Activity Hydrolyzing O Glycosyl Compounds: 1.219
  Nes: Inorganic Cation Transmembrane Transporter Activity: 0.6802
  Nes: Ion Channel Activity: 1.255
  Nes: Ion Transmembrane Transporter Activity: 1.185
  Nes: Isomerase Activity: 1.154
  Nes: Kinase Binding: 0.6301
  Nes: Ligase Activity: 0.4673
  Nes: Ligase Activity Forming Carbon Nitrogen Bonds: 0.6937
  Nes: Lyase Activity: 1.018
  Nes: Metal Ion Transmembrane Transporter Activity: 1.036
  Nes: Methyltransferase Activity: 0.9044
  Nes: Molecular Adaptor Activity: 1.189
  Nes: Monovalent Inorganic Cation Transmembrane Transporter Activity: 0.7857
  Nes: Motor Activity: 1.105
  Nes: Mrna Binding: 1.006
  Nes: Nuclease Activity: 0.9393
  Nes: Nucleotide Binding: 0.8932
  Nes: Oxidoreductase Activity: 0.9865
  Nes: Oxidoreductase Activity Acting On Ch Oh Group Of Donors: 0.8656
  Nes: Oxidoreductase Activity Go 0016705: 1.545
  Nes: Peptidase Activity: 1.4
  Nes: Phosphatase Regulator Activity: 0.456
  Nes: Phosphoprotein Phosphatase Activity: 1.51
  Nes: Phosphoric Diester Hydrolase Activity: 1.244
  Nes: Phosphoric Ester Hydrolase Activity: 1.31
  Nes: Phosphoric Monoester Hydrolase Activity: 1.31
  Nes: Protease Inhibitor Activity: 1.558
  Nes: Protein C Terminus Binding: 0.6675
  Nes: Protein Complex Binding: 1.312
  Nes: Protein Domain Specific Binding: 0.8643
  Nes: Protein Kinase Activity: 0.8772
  Nes: Protein Kinase Binding: 0.7501
  Nes: Protein Serine Threonine Kinase Activity: 0.8269
  Nes: Protein Serine Threonine Phosphatase Activity: 0.4942
  Nes: Protein Tyrosine Kinase Activity: 0.7818
  Nes: Protein Tyrosine Phosphatase Activity: 1.461
  Nes: Purine Nucleotide Binding: 0.8873
  Nes: Purine Ribonucleotide Binding: 0.9034
  Nes: Ras Gtpase Activator Activity: 0.9812
  Nes: Receptor Signaling Protein Activity: 0.7803
  Nes: Rho Gtpase Activator Activity: 0.9664
  Nes: Ribonuclease Activity: 0.4876
  Nes: Rna Splicing Factor Activity Transesterification Mechanism: 0.9542
  Nes: S Adenosylmethionine Dependent Methyltransferase Activity: 0.9978
  Nes: Secondary Active Transmembrane Transporter Activity: 1.221
  Nes: Sequence Specific Dna Binding: 0.8244
  Nes: Serine Hydrolase Activity: 1.672
  Nes: Serine Type Peptidase Activity: 1.65
  Nes: Sh3 Sh2 Adaptor Activity: 1.235
  Nes: Single Stranded Dna Binding: 0.9015
  Nes: Small Conjugating Protein Ligase Activity: 0.717
  Nes: Small Gtpase Binding: 0.9179
  Nes: Small Gtpase Regulator Activity: 1.109
  Nes: Small Protein Conjugating Enzyme Activity: 0.7314
  Nes: Specific Rna Polymerase Ii Transcription Factor Activity: 1.539
  Nes: Structural Constituent Of Cytoskeleton: 1.041
  Nes: Structural Constituent Of Muscle: 1.106
  Nes: Structural Molecule Activity: 0.7432
  Nes: Structure Specific Dna Binding: 0.7614
  Nes: Substrate Specific Channel Activity: 1.3
  Nes: Substrate Specific Transmembrane Transporter Activity: 1.04
  Nes: Substrate Specific Transporter Activity: 0.9263
  Nes: Transcription Activator Activity: 0.7812
  Nes: Transcription Coactivator Activity: 0.5439
  Nes: Transcription Cofactor Activity: 1.217
  Nes: Transcription Corepressor Activity: 1.692
  Nes: Transcription Factor Activity: 1.217
  Nes: Transcription Factor Binding: 1.248
  Nes: Transcription Repressor Activity: 1.653
  Nes: Transferase Activity Transferring Alkyl Or Aryl Other Than Methyl Groups: 0.6606
  Nes: Transferase Activity Transferring Glycosyl Groups: 0.6701
  Nes: Transferase Activity Transferring Groups Other Than Amino Acyl Groups: 0.6753
  Nes: Transferase Activity Transferring One Carbon Groups: 0.7951
  Nes: Transferase Activity Transferring Sulfur Containing Groups: 0.8435
  Nes: Transition Metal Ion Binding: 1.037
  Nes: Translation Factor Activity Nucleic Acid Binding: 0.81
  Nes: Translation Initiation Factor Activity: 0.4449
  Nes: Translation Regulator Activity: 0.9216
  Nes: Transmembrane Receptor Protein Kinase Activity: 0.7564
  Nes: Transmembrane Receptor Protein Tyrosine Kinase Activity: 0.9533
  Nes: Transmembrane Transporter Activity: 1.011
  Nes: Ubiquitin Protein Ligase Activity: 0.7536
  Nes: Zinc Ion Binding: 0.9797
